Data as given in ChEMBL document CHEMBL1128939, “New simplified inhibitors of EPSP synthase: The importance of ring size for recognition at the shikimate 3-phosphate site” (Bioorg Med Chem Lett, 1996).

The molecules below were run against T1, 3-phosphoshikimate 1-carboxyvinyltransferase (Escherichia coli K-12, UniProt P0A6D3) (assay: Compound was tested for inhibitory activity against EPSP(5-enolpyruvylshikimate 3-phosphate) synthase in Escherichia coli.). Conditions: not given.
T1 sequence (P0A6D3 whole entry): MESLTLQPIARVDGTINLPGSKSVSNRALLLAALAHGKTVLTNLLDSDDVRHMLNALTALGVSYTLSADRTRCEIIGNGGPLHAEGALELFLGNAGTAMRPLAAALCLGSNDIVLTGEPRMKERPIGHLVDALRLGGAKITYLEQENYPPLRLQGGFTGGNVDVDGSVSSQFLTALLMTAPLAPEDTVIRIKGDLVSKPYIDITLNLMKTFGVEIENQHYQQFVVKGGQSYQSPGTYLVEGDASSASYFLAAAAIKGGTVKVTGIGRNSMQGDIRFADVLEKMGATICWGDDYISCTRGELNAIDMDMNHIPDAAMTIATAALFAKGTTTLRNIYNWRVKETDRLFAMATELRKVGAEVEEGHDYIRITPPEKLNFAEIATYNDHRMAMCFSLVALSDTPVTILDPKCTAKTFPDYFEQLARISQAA
`O=C(O)c1cccc(P(=O)(O)O)n1` showed an IC50 of 50000 µM. Work on `O=C(O)c1ccc(O)c(C(O)(C(=O)O)C(=O)O)c1` yielded an IC50 of 20000 µM. `O=C(O)C1CCC(P(=O)(O)O)N1` (stereo not drawn) was tested, and the IC50 was 50000 µM. `O=C(O)c1cccc(P(=O)(O)O)c1` was tested, and the IC50 was 50000 µM. For `O=C(O)c1cccn1CP(=O)(O)O`, the IC50 was 50000 µM.

Same assay, conditions: read-out: Kd app
`O=C(O)C1=C[C@@H](OP(=O)(O)O)[C@@H](O)[C@H](O[C@](CF)(OP(=O)(O)O)C(=O)O)C1` showed a Kd of 0.0006 µM.

Same assay, conditions: read-out: Ki app
Work on `O=C(O)C1=C[C@@H](OP(=O)(O)O)[C@@H](O)CC1` yielded a Ki of 13 µM. `O=C(O)c1cc(C(O)P(=O)(O)O)c[nH]1` (stereo not drawn) gave a Ki of 0.0145 µM. `O=C(O)C1=C[C@@H](OP(=O)(O)O)[C@@H](O)[C@H](O[C@](OP(=O)(O)O)(C(=O)O)C(F)(F)F)C1` gave a Ki of 0.032 µM. Molecule `C[C@@](O[C@@H]1CC(C(=O)O)=C[C@@H](OP(=O)(O)O)[C@H]1O)(C(=O)O)P(=O)(O)O` has a Ki of 0.005 µM. `O=C(O)C1=C[C@@H](OP(=O)(O)O)[C@@H](O)[C@H](O[C@](OP(=O)(O)O)(C(=O)O)C(F)F)C1` gave a Ki of 0.004 µM. Work on `O=C(O)c1cc(OC(C(=O)O)C(=O)O)cc(OC(C(=O)O)P(=O)(O)O)c1` (stereo not drawn) yielded a Ki of 1.3 µM. `O=C(O)c1cc(OC(C(=O)O)P(=O)(O)O)c(O)c(C(O)(C(=O)O)C(=O)O)c1` (stereo not drawn) showed a Ki of 0.52 µM.
